Paper PMC8883573, “New Insights Into the Function of Flavohemoglobin in Mycobacterium tuberculosis: Role as a NADPH-Dependent Disulfide Reductase and D-Lactate-Dependent Mycothione Reductase” (Frontiers in Cellular and Infection Microbiology, 2022)

Biological target: T1, MtbFHb (Mycobacterium tuberculosis, UniProt Q7ARS9)
T1 construct: gene Rv0385
T1 sequence (Q7ARS9 entry or part of it): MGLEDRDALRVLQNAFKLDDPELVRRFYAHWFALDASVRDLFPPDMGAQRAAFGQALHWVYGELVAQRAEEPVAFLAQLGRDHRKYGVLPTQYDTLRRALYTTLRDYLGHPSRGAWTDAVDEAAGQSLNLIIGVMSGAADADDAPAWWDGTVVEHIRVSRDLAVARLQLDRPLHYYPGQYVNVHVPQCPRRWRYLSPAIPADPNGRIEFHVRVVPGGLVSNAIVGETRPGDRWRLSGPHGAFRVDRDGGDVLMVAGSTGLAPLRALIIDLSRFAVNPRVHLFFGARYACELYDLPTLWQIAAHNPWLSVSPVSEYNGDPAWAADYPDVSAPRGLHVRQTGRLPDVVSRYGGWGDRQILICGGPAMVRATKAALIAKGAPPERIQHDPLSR

Q: Which “far-UV circular dichroism (conformational change)” value does the source give for C[C@@H](O)C(=O)O [D-lactate] here?
A: These results confirmed a conformational change in MtbFHb during its interaction with D-lactate
